Assay: UV-visible titration and Job's plot, coordination to Cu2+
Type: physicochemical
Conditions: for Job's plot isosbestic point, mol fraction of Cu2+: 5 mM total in DMSO; for coordination stoichiometry with Cu2+: Job's method, 5 mM in DMSO
Protocol: The UV–visible spectrum was used to reveal their coordination properties to Cu^2+. […] The increased absorption at 481 nm and 475 nm (Fig. 3, A and B, inset) definitely indicated the complexation of 4GA–Cu^2+ and 2GA–Cu^2+, respectively. The coordination stoichiometry of 4GA and 2GA with Cu^2+ was determined by Job’s plot analysis (Fig. 3, C and D). […] However, their macrocyclic precursors (cyclen and N-methylated cyclen 2ME]) were evaluated to coordinate with Cu^2+ by 1:1 mode (Fig. S9). The different coordination mode with Cu^2+ was supposed to be the synergistic coordination effects of galloyl side arms, in addition to the central azacrown structure.
The chelating studies were performed on Hitachi U-2900 UV–visible spectrophotometer with a 10-mm quartz cell. For titration experiment, the UV absorption of test compound (1 mM in DMSO) was recorded in the presence of CuCl2 (0–6 equivalents of Cu^2+ for 4GA, 0–5 equivalents of Cu^2+ for 2GA, respectively). For Job’s method, a series of solution was prepared in which the total concentration of compound and Cu^2+ was fixed (5 mM in DMSO), but their proportions of ether component varied between 0% and 100%, and the UV spectra were analyzed to determine the ratio of ligand–Cu^2+.
Figure S9. The chemical structure of cyclen derivates (upper), and the determination of the stoichiometry of complex (A) cyclen-Cu^2+, (B) 1ME-Cu^2+, (C) 2ME-Cu^2+, (D) 3ME-Cu^2+, (E) 4ME-Cu^2+ (5 mM) by Job’s method.

| Compound | Job's plot isosbestic point, mol fraction of Cu2+ [mol fraction] | coordination stoichiometry with Cu2+ |
| --- | --- | --- |
| CN1CCN(C(=O)c2cc(O)c(O)c(O)c2)CCN(C)CCN(C(=O)c2cc(O)c(O)c(O)c2)CC1 [2GA, (4,10-dimethyl-1,4,7,10-tetraazacyclododecane-1,7-diyl)bis((3,4,5-trihydroxyphenyl)methanone)] | 0.7 | can bind with two Cu^2+ ions |
| O=C(c1cc(O)c(O)c(O)c1)N1CCN(C(=O)c2cc(O)c(O)c(O)c2)CCN(C(=O)c2cc(O)c(O)c(O)c2)CCN(C(=O)c2cc(O)c(O)c(O)c2)CC1 [4GA, (1,4,7,10-tetraazacyclododecane-1,4,7,10-tetrayl)tetrakis((3,4,5-trihydroxyphenyl)methanone)] | 0.7 | can bind with two Cu^2+ ions |

Reference: paper PMC12455130, “Multifunctional molecular agent for tau-targeted combinational therapy of Alzheimer’s disease” (The Journal of Biological Chemistry, 2025)
